Reference: ChEMBL document CHEMBL1201862, “PubChem BioAssay data set” (2004)
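Cultured in 96-well plates, cells were exposed to test compound for 48 hours across five concentrations. GI50 = concentration required for 50% inhibition of growth.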 The source made the active and inactive calls. Cut-off read from the data, not from the text of the source: active = GI50 up to about 1.1 µM and inactive = higher.

Experiments:
Experiment in all cases: DTP human tumour cell line panel, 48 h
NCI/ADR-RES = test system: NCI/ADR-RES
SF-295 = test system: SF-295
UO-31 = test system: UO-31
SK-MEL-28 = test system: SK-MEL-28
OVCAR-8 = test system: OVCAR-8
COLO 205 = test system: COLO 205
HT-29 = test system: HT-29
SNB-75 = test system: SNB-75
OVCAR-3 = test system: OVCAR-3
MOLT-4 = test system: MOLT-4
SN12C = test system: SN12C
SW-620 = test system: SW-620
TK-10 = test system: TK-10
HOP-92 = test system: HOP-92
SK-OV-3 = test system: SK-OV-3
ACHN = test system: ACHN
MDA-MB-231 = test system: MDA-MB-231
UACC-62 = test system: UACC-62
CCRF-CEM = test system: CCRF-CEM
MDA-N = test system: MDA-N

Measured: GI50

CCn1c(-c2c(Cl)cc(O)cc2Cl)cc2c(Cl)cc(O)cc21
inactive: NCI/ADR-RES 5.13 µM | SF-295 4.05 µM | UO-31 7.83 µM | SK-MEL-28 2.3 µM | OVCAR-8 4.59 µM | COLO 205 15.2 µM | HT-29 1.58 µM | SNB-75 4.18 µM | OVCAR-3 6.08 µM | MOLT-4 8.87 µM | SN12C 13.3 µM | SW-620 5.69 µM | TK-10 13.1 µM | HOP-92 13.8 µM | SK-OV-3 7.36 µM | ACHN 4.66 µM | MDA-MB-231 5.9 µM | UACC-62 8.49 µM | CCRF-CEM 6.04 µM

CC1CNC(NS(=O)(=O)c2cc(C(=O)Nc3ccccc3)c(Cl)cc2S)=NN1 (stereo unspecified)
inactive: NCI/ADR-RES > 100 µM | SF-295 38.5 µM | MDA-N 24.9 µM | UO-31 77.8 µM | SK-MEL-28 45.3 µM | OVCAR-8 30.8 µM | COLO 205 48.6 µM | HT-29 38.8 µM | OVCAR-3 41.4 µM | MOLT-4 49.8 µM | SN12C > 100 µM | SW-620 40.6 µM | TK-10 > 100 µM | SK-OV-3 81.5 µM | ACHN 69 µM | MDA-MB-231 > 100 µM | UACC-62 43.2 µM | CCRF-CEM 32.8 µM

C[n+]1ccc2/c(=C\C#N)c3ccccc3n21
inactive: NCI/ADR-RES > 100 µM | SF-295 33.7 µM | MDA-N 32.5 µM | UO-31 > 100 µM | SK-MEL-28 23.1 µM | OVCAR-8 36.6 µM | COLO 205 19.7 µM | HT-29 22.9 µM | OVCAR-3 14.6 µM | MOLT-4 30.8 µM | SN12C 27.9 µM | SW-620 35.1 µM | TK-10 22 µM | HOP-92 22.4 µM | SK-OV-3 30.6 µM | ACHN 39.2 µM | UACC-62 34.8 µM | CCRF-CEM 20 µM

CC(C)CNC(=O)Cn1c(-c2ccccc2)cc2ccccc21
inactive: NCI/ADR-RES > 100 µM | SF-295 54.3 µM | MDA-N > 100 µM | UO-31 > 100 µM | SK-MEL-28 > 100 µM | OVCAR-8 > 100 µM | COLO 205 > 100 µM | HT-29 > 100 µM | SNB-75 > 100 µM | OVCAR-3 > 100 µM | MOLT-4 > 100 µM | SN12C > 100 µM | SW-620 > 100 µM | TK-10 > 100 µM | SK-OV-3 > 100 µM | ACHN > 100 µM | UACC-62 > 100 µM | CCRF-CEM > 100 µM

COc1cc2c(c(O)c1OC)C(O)C1CCC(=O)N1C2c1ccc2c(c1)OCO2 (stereo unspecified)
inactive: NCI/ADR-RES > 100 µM | SF-295 > 100 µM | UO-31 > 100 µM | SK-MEL-28 > 100 µM | OVCAR-8 > 100 µM | COLO 205 > 100 µM | HT-29 80.2 µM | SNB-75 81.3 µM | OVCAR-3 > 100 µM | MOLT-4 > 100 µM | SN12C > 100 µM | SW-620 > 100 µM | TK-10 > 100 µM | HOP-92 > 100 µM | SK-OV-3 > 100 µM | ACHN > 100 µM | MDA-MB-231 > 100 µM | UACC-62 > 100 µM | CCRF-CEM > 100 µM

COc1cc(OC)c2c(O)c(S(=O)(=O)c3ccc(C)cc3)c(=O)oc2c1
inactive: NCI/ADR-RES > 100 µM | SF-295 > 100 µM | UO-31 > 100 µM | SK-MEL-28 > 100 µM | OVCAR-8 > 100 µM | COLO 205 > 100 µM | HT-29 > 100 µM | SNB-75 > 100 µM | OVCAR-3 > 100 µM | MOLT-4 > 100 µM | SN12C > 100 µM | SW-620 > 100 µM | TK-10 > 100 µM | HOP-92 > 100 µM | SK-OV-3 > 100 µM | ACHN > 100 µM | MDA-MB-231 > 100 µM | UACC-62 > 100 µM | CCRF-CEM 78.2 µM

COc1cc(OC)c(-n2[nH]c(=O)n(C)c2=O)c(OC)c1
inactive: NCI/ADR-RES > 100 µM | MDA-N > 100 µM | UO-31 > 100 µM | SK-MEL-28 > 100 µM | OVCAR-8 > 100 µM | COLO 205 > 100 µM | HT-29 > 100 µM | SNB-75 > 100 µM | OVCAR-3 > 100 µM | MOLT-4 > 100 µM | SN12C > 100 µM | SW-620 > 100 µM | TK-10 > 100 µM | SK-OV-3 > 100 µM | MDA-MB-231 > 100 µM | UACC-62 > 100 µM | CCRF-CEM > 100 µM

CC(=O)O/N=C/c1ncccc1OC(C)=O
inactive: SF-295 > 100 µM | UO-31 > 100 µM | SK-MEL-28 > 100 µM | OVCAR-8 > 100 µM | COLO 205 > 100 µM | HT-29 > 100 µM | SNB-75 > 100 µM | OVCAR-3 > 100 µM | MOLT-4 > 100 µM | SN12C > 100 µM | SW-620 > 100 µM | TK-10 > 100 µM | HOP-92 > 100 µM | SK-OV-3 > 100 µM | ACHN > 100 µM | UACC-62 > 100 µM | CCRF-CEM > 100 µM

Cn1c(=O)c2[nH]c(Nc3cccc(Cl)c3)nc2n(C)c1=O
inactive: SF-295 4.84 µM | MDA-N 4.21 µM | SK-MEL-28 5.42 µM | OVCAR-8 6.17 µM | COLO 205 3.6 µM | HT-29 3.99 µM | SNB-75 4.86 µM | MOLT-4 3.13 µM | SN12C 5.77 µM | SW-620 5.78 µM | TK-10 8.91 µM | HOP-92 2.78 µM | SK-OV-3 6.17 µM | MDA-MB-231 7.48 µM | UACC-62 3.17 µM | CCRF-CEM 3.96 µM

C=C1C(=O)OC2C3C(=C)[C@@H](OC(C)=O)CC3C(C)=CC(OC(=O)C(C)(O)C(C)OC(C)=O)[C@@H]12 (stereo partly specified)
inactive: SF-295 48.2 µM | MDA-N 5.82 µM | UO-31 12.4 µM | SK-MEL-28 14 µM | OVCAR-8 20.1 µM | COLO 205 4.15 µM | HT-29 5.09 µM | SNB-75 13.7 µM | OVCAR-3 9.82 µM | MOLT-4 3.04 µM | SN12C 14.7 µM | SW-620 2.88 µM | TK-10 3.99 µM | SK-OV-3 80.9 µM | ACHN 10.4 µM | MDA-MB-231 19.8 µM | UACC-62 10.6 µM | CCRF-CEM 2.84 µM

COC(=O)[C@@H]1C(=O)O[C@@H](c2ccc(OC)c(OC)c2OC)[C@@H]1C(=O)OC.COC(=O)[C@H]1C(=O)O[C@@H](c2ccc(OC)c(OC)c2OC)[C@@H]1C(=O)OC
inactive: SF-295 > 100 µM | UO-31 > 100 µM | SK-MEL-28 > 100 µM | OVCAR-8 > 100 µM | COLO 205 > 100 µM | HT-29 > 100 µM | SNB-75 > 100 µM | OVCAR-3 > 100 µM | MOLT-4 > 100 µM | SN12C > 100 µM | SW-620 > 100 µM | TK-10 > 100 µM | HOP-92 > 100 µM | SK-OV-3 > 100 µM | ACHN > 100 µM | UACC-62 > 100 µM | CCRF-CEM > 100 µM
